Source: patent US6869957B1, “Non-peptide tachykinin receptor antagonists” (Eli Lilly and Company, priority 1993, dated 2005)

Legend:
human NK-2 receptor = target: T1, human NK-2 receptor (Homo sapiens, UniProt P21452); assay: NK-2 Receptor Binding Assay ([125I]iodohistidyl-neurokinin A, CHO-hNK-2R membranes); settings: for IC50: inhibits fifty percent of binding of [125I]iodohistidyl-neurokinin A to CHO-hNK-2R membranes; for NK-2 percent inhibition of binding: @ 10 μM
T1 construct: expressed in transfected cells; host or cells: CHO-hNK-2R cells (CHO-derived), membrane preparation
T1 sequence (P21452 1-398): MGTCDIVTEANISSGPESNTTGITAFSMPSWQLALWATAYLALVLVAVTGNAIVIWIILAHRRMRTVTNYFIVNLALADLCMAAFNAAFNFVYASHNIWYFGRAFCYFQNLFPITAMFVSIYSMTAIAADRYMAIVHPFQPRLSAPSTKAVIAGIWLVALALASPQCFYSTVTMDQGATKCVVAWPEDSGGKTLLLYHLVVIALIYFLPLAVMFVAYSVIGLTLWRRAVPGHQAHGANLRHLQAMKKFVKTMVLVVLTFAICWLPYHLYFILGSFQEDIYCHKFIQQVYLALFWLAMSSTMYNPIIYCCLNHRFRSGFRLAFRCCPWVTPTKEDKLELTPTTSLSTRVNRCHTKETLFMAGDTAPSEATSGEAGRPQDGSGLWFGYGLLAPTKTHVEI
Method in brief: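 Membranes from CHO cells stably expressing human NK-2 receptor (~400,000/cell), 40 μg protein per sample, in 50 mM Tris pH 7.4 with 3 mM MnCl2, 0.02% BSA, 4 μg/ml chymostatin. Displacement of 20 pM [125I]iodohistidyl-neurokinin A, 1 hr at room temperature; GF/B filtration, gamma counting. Non-specific binding defined with 1 μM eledoisin.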

NK-1 receptor = target: T2, NK-1 receptor (Homo sapiens, UniProt P25103); assay: NK-1 Receptor Binding Assay (125I-labeled substance P, IM9 cells); settings: for IC50: inhibits fifty percent of binding of 125I-substance P to IM9 cells
T2 construct: endogenous in cells; host or cells: IM9 cells (human cell line), whole cells
T2 sequence (P25103 whole entry): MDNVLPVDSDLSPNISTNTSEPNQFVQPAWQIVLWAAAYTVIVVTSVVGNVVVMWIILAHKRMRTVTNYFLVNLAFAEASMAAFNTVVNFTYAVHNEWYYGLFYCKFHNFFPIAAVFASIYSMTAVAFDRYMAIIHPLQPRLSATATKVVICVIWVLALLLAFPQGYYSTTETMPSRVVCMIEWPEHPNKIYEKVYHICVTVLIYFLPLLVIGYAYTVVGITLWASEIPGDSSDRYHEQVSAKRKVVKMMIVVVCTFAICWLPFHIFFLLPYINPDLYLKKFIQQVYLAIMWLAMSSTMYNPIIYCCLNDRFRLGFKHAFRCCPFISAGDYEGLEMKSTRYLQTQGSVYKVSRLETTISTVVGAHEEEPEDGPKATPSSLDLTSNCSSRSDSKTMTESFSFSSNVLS
Method in brief: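 Radioligand binding on human IM9 cells, ended by filtration over glass fiber filters presoaked in 0.1% polyethylenimine. Specific binding of labeled substance P defined with 20 nM unlabeled ligand.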

| Structure (SMILES) | IC50 (human NK-2 receptor) [µM] | NK-1 percent inhibition of binding (NK-1 receptor; @ 5 μM) | NK-2 percent inhibition of binding (human NK-2 receptor) [% @] | IC50 (NK-1 receptor) [µM] | NK-1 percent inhibition of binding (NK-1 receptor; @ 10 μM) [% @] |
| --- | --- | --- | --- | --- | --- |
| CC(=O)N(CCc1ccccc1)CC(Cc1c[nH]c2ccccc12)NC(c1ccccc1)(c1ccccc1)c1ccccc1 (stereo not drawn) [Example 168] | > 100 | 13% @ |  |  |  |
| COc1ccccc1CNCC(Cc1c[nH]c2cc(C)ccc12)NC(c1ccccc1)(c1ccccc1)c1ccccc1 (stereo not drawn) [Example 169] | 13.9 | 8% @ 5 μM |  |  |  |
| CC(=O)N(Cc1ccccc1Cl)CC(Cc1c[nH]c2ccccc12)NC(c1ccccc1)(c1ccccc1)c1ccccc1 (stereo not drawn) [Example 170] |  |  | 2 | 0.067 |  |
| COc1ccccc1CN(CC(Cc1c[nH]c2cc(C)ccc12)NC(c1ccccc1)(c1ccccc1)c1ccccc1)C(C)=O (stereo not drawn) [Example 171] |  | 0% @ 5 μM | 6 |  |  |
| COc1ccccc1CNCC(NC(c1ccccc1)(c1ccccc1)c1ccccc1)c1ccccc1 (stereo not drawn) [Example 173] | 2 |  |  | 0.074 |  |
| COc1ccccc1CNCC(Cc1ccccc1)NC(c1ccccc1)(c1ccccc1)c1ccccc1 (stereo not drawn) [Example 174] | 6.4 | 0% @ 5 μM |  |  |  |
| COc1ccccc1CN(CC(NC(c1ccccc1)(c1ccccc1)c1ccccc1)c1ccccc1)C(C)=O (stereo not drawn) [Example 175] |  | 28% @ | 9 |  |  |
| COc1ccccc1CN(CC(NC(c1ccccc1)(c1ccccc1)c1ccccc1)c1ccc(Cl)c(Cl)c1)C(C)=O (stereo not drawn) [Example 176] |  | 9% @ 5 μM | 0 |  |  |
| COc1ccccc1CN(CC(Cc1ccccc1)NC(c1ccccc1)(c1ccccc1)c1ccccc1)C(C)=O (stereo not drawn) [Example 177] |  |  | 12 |  | 0 |
